The text below walks through data of patent US20040058903A1, “Benzamide compounds as apo b secretion inhibitors” (priority 2000, published 2004).

In one experiment the test system is ddY-mice. Briefly: Lipids lowering effect on ddY-mice. The class given is in vivo. Particulars: male ddY-mice, oral dose 32 mg/kg, 2 hr after administration, percent relative to baseline (0 hr); for Cholesterol (% of 0 hr) 2 hr: plasma total-cholesterol; for Triglyceride (% of 0 hr) 2 hr: plasma triglyceride. From the text:
Test 2: Lipids Lowering Effect on ddY-Mice
Male ddy-mice were housed in temperature- and humidity-controlled rooms and fed with laboratory chow. The animals were randomized according to their body weight and deprived of food just before the experiment. A blood sample (baseline blood sample) was collected from the retro orbital venous plexus before administration of the test drug, and then the animals were orally dosed with the test drug in a vehicle (aqueous solution of 0.5% methylcellulose). Blood samples were drawn at 2 hours after drug administration for the measurement of cholesterol and triglyceride.
Plasma total-cholesterol and plasma triglyceride were determined by conventional enzyme-methods using commercially available kits. The cholesterol CII-Test Wako (Wako Pure Chemical Industries, Ltd.) was used for the measurement of cholesterol, and the triglyceride E-test Wako (Wako Pure Chemical Industries, Ltd.) was used for the measurement of triglyceride.
Lipids lowering effects were shown in percent relative to the baseline level (level at 0 hr).

For the next experiment, the system named is Apo B secretion. Description: Measurement of inhibition of Apo B secretion (HepG2 cells, ELISA). The class given is cell-based. Particulars: 15-hour incubation, 0.1% DMSO treated cells as controls; for inhibition at 1 µM: Homo sapiens, 10^−6 M. The method, then: Test 1: Measurement of Inhibition of Apo B Secretion
HepG2 cells were seeded in Eagles medium containing 10% fetal calf serum (FCS) at a density of 30000 cells/well in 96-well plates and allowed to grow for 3 days before treatment. At this time, the medium was replaced with fresh medium containing 0.1% dimethyl sulfoxide (DMSO) and the indicated concentrations of a test compound. After 15-hour incubation, the amount of Apo B and Apo AI accumulated in the media was determined by ELISA.
The assay was carried out at room temperature. A flat bottomed micro ELISA plate (manufactured by Nunc) was coated with an anti Apo B monoclonal antibody solution ([…] in 0.05% carbonate buffer, pH 9.6) by adding the antibody solution at a volume of 100 μl per well. After 1-hour incubation on a plate mixer, the unbound materials were removed by washing the well 3 times with a washing buffer (phosphate buffered saline, pH 7.2 containing 0.1% bovine serum albumin and 0.05% Tween-20). Then 20 μl of […] and 100 μl of a solution of peroxidase coupled anti Apo B antibody were added. After 1-hour incubation on a plate mixer, washing was performed 3 times to remove the unbound materials. A freshly prepared substrate solution (2.5 mg/ml ortho-phenylene diamine and 0.018% H2Oz in 0.11 M Na2HPO4-0.044 M sodium citrate buffer, pH 5.4) at a volume of 200 μl was then added to each well. After 20-minute incubation, the enzyme reaction was terminated by adding 50 μl of 0.5 M sulfuric acid. Absorbance of each well was determined at 490 nm using a microplate reader. Apo B concentration was calculated from a standard curve generated from purified Apo B standard that was run in parallel in the same plate. Inhibition of Apo B secretion by the test compound is calculated taking […] treated cells as controls.
Measurement of Apo AI was performed similar to that of Apo B, except for diluting the sample 11-fold with a dilution buffer (phosphate buffered saline, pH 7.2 containing 0.5% bovine serum albumin and 0.05% Tween-20). […]
A general note: An ELISA detects its analyte on a solid surface through an enzyme-linked reagent.

As for `O=C(Nc1ccc(CCCc2ccccn2)cc1)c1ccccc1-c1ccc(C(F)(F)F)cc1` [Example 25, N-{4-[3-(2-pyridinyl)propyl]phenyl}-4′-(trifluoromethyl)-1,1′-biphenyl-2-carboxamide], in the experiment on ddY-mice, the “Cholesterol (% of 0 hr) 2 hr” value is on record as 78 % of 0 hr and the “Triglyceride (% of 0 hr) 2 hr” value was 23 % of 0 hr. Take `Nc1cccc(CCCc2ccc(NC(=O)c3ccccc3-c3ccc(C(F)(F)F)cc3)cc2)n1` [Example 44, N-{4-[3-(6-amino-2-pyridinyl)propyl]phenyl}-4′-(trifluoromethyl)-1,1′-biphenyl-2-carboxamide]: testing at 1 µM in the experiment on Apo B secretion gave an inhibition of 100%. Take `O=C(Nc1ccc(NCCc2ccccn2)cc1)c1ccccc1-c1ccc(C(F)(F)F)cc1` [Example 59, N-(4-{[2-(2-pyridinyl)ethyl]amino}phenyl)-4′-(trifluoromethyl)-1,1′-biphenyl-2-carboxamide]: in the experiment with ddY-mice, the “Cholesterol (% of 0 hr) 2 hr” value was 77 % of 0 hr and the “Triglyceride (% of 0 hr) 2 hr” value is 15 % of 0 hr. Consider `O=C(Nc1ccc(NCCc2ccccn2)cc1)c1ccccc1Nc1cccc(C(F)(F)F)c1` [Example 64, N-(4-{[2-(2-pyridinyl)ethyl]amino}phenyl)-2-[3-(trifluoromethyl)-anilino]benzamide], for which the inhibition – broadly, the percentage by which the read-out fell short of the control – at 1 µM in the experiment on Apo B secretion worked out at 100%. Regarding `O=C(Cc1ccccn1)Nc1ccc(NC(=O)c2ccccc2-c2ccc(C(F)(F)F)cc2)cc1` [Example 65, N-{4-[(2-pyridinylacetyl)amino]phenyl]-4′-(trifluoromethyl)-1,1′-biphenyl-2-carboxamide], the “Inhibition of Apo B secretion at 10^−6 M (%)” value in the experiment with Apo B secretion was 92.2%. In the experiment on ddY-mice, the “Cholesterol (% of 0 hr) 2 hr” value was 83 % of 0 hr and the “Triglyceride (% of 0 hr) 2 hr” value is 36 % of 0 hr.
